Measurements from patent US4649198A, “Imidazo(1,5-a)pyrimidine derivatives and their use as antimycotic agents” (Kyorin Pharmaceutical Co., Ltd., priority 1983, dated 1987).
Converted amounts (≈) assume the structure as drawn.

Assays:
Test in all cases: antifungal activity, standard agar dilution streak method
Format in all cases: cell-based
[1] = system: Candida albicans IFO-1388; settings: IFO1388, read-out: Minimum Inhibitory Concentration
Protocol: (§1) The antifungal activity of the compound of the present invention was assayed by the standard agar dilution streak method against fungi.

Candida albicans 3147 = settings: read-out: Minimum Inhibitory Concentration
Protocol: as §1

Candida albicans KYF-602 = settings: KYF602, read-out: Minimum Inhibitory Concentration
Protocol: as §1

[2] = system: Aspergillus fumigatus MTU-06002; settings: MTU06002, read-out: Minimum Inhibitory Concentration
Protocol: as §1

[3] = system: Candida stellatidea IFO-1398; settings: IFO1398, read-out: Minimum Inhibitory Concentration
Protocol: as §1

[4] = system: Candida albicans MTU-12124; settings: MTU12124, read-out: Minimum Inhibitory Concentration
Protocol: as §1

[5] = system: Trichophyton mentagrophytes MTU-19003; settings: MTU19003, read-out: Minimum Inhibitory Concentration
Protocol: as §1

[6] = system: Trichophyton mentagrophytes MTU-19005; settings: MTU19005, read-out: Minimum Inhibitory Concentration
Protocol: as §1

[7] = system: Candida albicans IFO-1594; settings: IFO1594, read-out: Minimum Inhibitory Concentration
Protocol: as §1

Microsporum canis 20010 = settings: read-out: Minimum Inhibitory Concentration
Protocol: as §1

| MIC [1] [µg/mL] | MIC (Candida albicans 3147) [µg/mL] | MIC (Candida albicans KYF-602) [µg/mL] | MIC [2] [µg/mL] | MIC [3] [µg/mL] | MIC [4] [µg/mL] | MIC [5] [µg/mL] | MIC [6] [µg/mL] | MIC [7] [µg/mL] | MIC (Microsporum canis 20010) [µg/mL] | SMILES |
| --- | --- | --- | --- | --- | --- | --- | --- | --- | --- | --- |
| 1.56 (≈ 5.23 µM) | 6.25 (≈ 20.9 µM) | 6.25 (≈ 20.9 µM) | 6.25 (≈ 20.9 µM) | 0.2 (≈ 0.67 µM) | 3.13 (≈ 10.5 µM) | 1.56 (≈ 5.23 µM) | 0.78 (≈ 2.61 µM) | 3.13 (≈ 10.5 µM) | 0.78 (≈ 2.61 µM) | Clc1ccc(-c2ncc3nc(Cl)cc(Cl)n23)cc1 [Ex. 1, 2,4-dichloro-6-(4-chlorophenyl)imidazo[1,5-a]pyrimidine] |
| 1.56 (≈ 4.55 µM) | 1.56 (≈ 4.55 µM) | 6.25 (≈ 18.2 µM) | 6.25 (≈ 18.2 µM) | 0.2 (≈ 0.583 µM) | 3.13 (≈ 9.13 µM) | 1.56 (≈ 4.55 µM) | 0.78 (≈ 2.27 µM) | 3.13 (≈ 9.13 µM) | 0.78 (≈ 2.27 µM) | Clc1cc(Cl)n2c(-c3ccc(Br)cc3)ncc2n1 [Ex. 5] |
| 1.56 (≈ 4.68 µM) | 1.56 (≈ 4.68 µM) | 3.13 (≈ 9.4 µM) | > 100 | 0.39 (≈ 1.17 µM) | 1.56 (≈ 4.68 µM) | 0.78 (≈ 2.34 µM) | 139 (≈ 417 µM) | 1.56 (≈ 4.68 µM) | 0.39 (≈ 1.17 µM) | Clc1cc(Cl)n2c(-c3ccc(Cl)c(Cl)c3)ncc2n1 [Ex. 7] |
| 0.78 (≈ 2.34 µM) | 1.56 (≈ 4.68 µM) | 6.25 (≈ 18.8 µM) | 12.5 (≈ 37.5 µM) | 0.78 (≈ 2.34 µM) | 1.56 (≈ 4.68 µM) | 1.56 (≈ 4.68 µM) | 0.78 (≈ 2.34 µM) | 3.13 (≈ 9.4 µM) | 1.56 (≈ 4.68 µM) | Clc1ccc(-c2ncc3nc(Cl)cc(Cl)n23)c(Cl)c1 [Ex. 9] |
| 1.56 (≈ 4.99 µM) | 1.56 (≈ 4.99 µM) | 3.13 (≈ 10 µM) | 3.13 (≈ 10 µM) | 0.78 (≈ 2.5 µM) | 6.25 (≈ 20 µM) | 1.56 (≈ 4.99 µM) | 0.2 (≈ 0.64 µM) | 1.56 (≈ 4.99 µM) | 0.39 (≈ 1.25 µM) | Clc1ccc(Cc2ncc3nc(Cl)cc(Cl)n23)cc1 [Ex. 16] |
| 0.78 (≈ 2.67 µM) | 3.13 (≈ 10.7 µM) | 12.5 (≈ 42.8 µM) | 25 (≈ 85.6 µM) | 3.13 (≈ 10.7 µM) | 3.13 (≈ 10.7 µM) | 1.56 (≈ 5.34 µM) | 1.56 (≈ 5.34 µM) | 3.13 (≈ 10.7 µM) | 1.56 (≈ 5.34 µM) | CC(c1ccccc1)c1ncc2nc(Cl)cc(Cl)n12 (centres unmarked) [Ex. 18] |
| 0.78 (≈ 2.25 µM) | 0.78 (≈ 2.25 µM) | > 6.25 | > 6.25 | 0.2 (≈ 0.576 µM) | 0.78 (≈ 2.25 µM) | 1.56 (≈ 4.5 µM) | 0.78 (≈ 2.25 µM) | 0.78 (≈ 2.25 µM) | 0.78 (≈ 2.25 µM) | Clc1ccc(Cc2ncc3nc(Cl)cc(Cl)n23)c(Cl)c1 [Ex. 20] |
| 3.13 (≈ 8.03 µM) | 1.56 (≈ 4 µM) | > 6.25 | – | 1.56 (≈ 4 µM) | 1.56 (≈ 4 µM) | – | – | 6.25 (≈ 16 µM) | – | Clc1cc(Cl)n2c(-c3ccc(I)cc3)ncc2n1 [Ex. 21] |
| 0.2 (≈ 0.74 µM) | 1.56 (≈ 5.77 µM) | 3.13 (≈ 11.6 µM) | 50 (≈ 185 µM) | 3.13 (≈ 11.6 µM) | 6.25 (≈ 23.1 µM) | 3.13 (≈ 11.6 µM) | 1.56 (≈ 5.77 µM) | 0.39 (≈ 1.44 µM) | 1.56 (≈ 5.77 µM) | Clc1cc(Cl)n2c(C3CCCCC3)ncc2n1 [Ex. 23] |
